Test: in vivo
Conditions: mouse, iv
Source text: The substance of this invention was intravenously administered to male mice of DD strain weighing 20 to 21 g and checked for acute toxicity.

Structure (SMILES): CN[C@H](CC(C)C)C(=O)N[C@H]1C(=O)N[C@@H](CC(N)=O)C(=O)N[C@H]2C(=O)N[C@H]3C(=O)N[C@H](C(=O)N[C@H](C(=O)O)c4cc(O)cc(O)c4-c4cc3ccc4O)[C@H](O)c3ccc(c(Cl)c3)Oc3cc2cc(c3O[C@@H]2O[C@H](CO)[C@@H](O)[C@H](O)[C@H]2O[C@H]2C[C@](C)(N)[C@H](O)[C@H](C)O2)Oc2ccc(cc2Cl)[C@H]1O [vancomycin]
- LD50: 400 to 500 mg/kg

Source: patent US4378348A (priority 1979, dated 1983)
